Measured values reported in patent US9062041B2 (Bayer Intellectual Property GmbH, priority 2011, dated 2015).

Tests used:
Format in all cases: cell-based
[1] = target: EP2 subtype of the human PGE2 receptor (Homo sapiens, UniProt P43116); assay: cAMP antagonism test on the human EP2 receptor (HTRF cAMP detection); conditions: hEP2 receptor, read-out: Antagonism hEP2 IC50
Excerpt: 1. Detection of Antagonism to the Human Prostaglandin E2 (Subtype EP2) Receptor Signal
(§1) The binding of PGE2 to the EP2 subtype of the human PGE2 receptor induces the activation of membrane-located adenylate cyclases and leads to the formation of cAMP. In the presence of the phosphodiesterase inhibitor IBMX, the cAMP accumulated owing to this stimulation and released by cell lysis is used in a competitive detection method. In this test, the cAMP present in the lysate competes with a fluorescence-labelled cAMP (cAMP-d2) for binding to an Eu cryptate-labelled anti-cAMP antibody.
(§2) In the absence of cellular cAMP, a maximal signal is produced, which is attributable to the binding of this cAMP-d2 molecule to the antibody. After excitation of the […] at 337 nm, there is a fluorescence resonance energy transfer (FRET) to the Eu cryptate molecules of the anti-cAMP antibody (labelled therewith), followed by a long-lasting emission signal at 665 nm (and at […]). Both signals are measured in a suitable measurement instrument with a time delay, i.e. after decay of the background fluorescence. Any increase in the low FRET signal caused by prostaglandin E2 administration (measured as well ratio change=emission665 nm/emission620 nm*10000) indicates the action of antagonists.
1.2.1. Test for Antagonism (Data Per Well of a 384-Well Plate):
(§3) To a test plate with the substance solutions already added (0.05 μl; 100% DMSO, concentration range from 0.8 nM-16.5 μM) were added 4 μl of a cAMP-d2/cell suspension (625000 cells/ml). After a 20-minute preincubation at room temperature (RT), 2 μl of a 3×PGE2 solution (1.5 nM, in PBS-IBMX) were added and incubated in the presence of the agonist for a further 60 mins at RT (volume: ˜6 μl). Next the reaction was stopped by addition of 2 μl of lysis buffer and incubated for a further 20 mins at RT before the actual measurement (volume: ˜8 μl).

[2] = target: T1, human PGD receptor (Homo sapiens, UniProt Q13258); assay: cAMP antagonism test on the human prostaglandin D receptor (HTRF cAMP detection); conditions: selectivity towards hDP, IC50 measured by cAMP antagonism test
T1 sequence (Q13258 1-359): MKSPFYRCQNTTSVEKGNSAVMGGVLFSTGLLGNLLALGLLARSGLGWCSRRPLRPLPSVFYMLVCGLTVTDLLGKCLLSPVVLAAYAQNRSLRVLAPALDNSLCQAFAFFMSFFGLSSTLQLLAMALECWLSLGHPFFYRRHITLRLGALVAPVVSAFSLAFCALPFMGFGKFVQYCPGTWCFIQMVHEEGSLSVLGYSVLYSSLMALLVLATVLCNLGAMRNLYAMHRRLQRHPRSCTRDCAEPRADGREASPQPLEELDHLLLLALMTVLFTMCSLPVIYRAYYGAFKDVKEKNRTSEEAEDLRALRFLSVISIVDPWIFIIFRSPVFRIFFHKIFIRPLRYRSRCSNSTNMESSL
Excerpt: 3. Detection of Antagonism to the Human Prostaglandin D Receptor Signal
as §1, with “of prostaglandin D2” for “of PGE2”, “the” for “the EP2 subtype of the”, “human PGD” for “human PGE2”
as §2
3.2.1. Test for Antagonism (Data Per Well of a 384-Well Plate):
as §3, with “3×PGD2” for “3×PGE2”, “(6” for “(1.5”, “30” for “60”

[3] = target: EP4 subtype of the human PGE2 receptor (Homo sapiens, UniProt P35408); assay: cAMP antagonism test on the human EP4 receptor (HTRF cAMP detection); conditions: selectivity towards hEP4, IC50 measured by cAMP antagonism test
Excerpt: 2. Detection of Antagonism to the Human Prostaglandin E2 (Subtype EP4) Receptor Signal
as §1, with “EP4” for “EP2”
as §2, with “cAMP” for “cAMP,”
2.2.1. Test for Antagonism (Data Per Well of a 384-Well Plate):
as §3, with “(312500” for “(625000”, “(0.3” for “(1.5”

EP4 subtype of the human PGE2 receptor, sequence (P35408 whole entry): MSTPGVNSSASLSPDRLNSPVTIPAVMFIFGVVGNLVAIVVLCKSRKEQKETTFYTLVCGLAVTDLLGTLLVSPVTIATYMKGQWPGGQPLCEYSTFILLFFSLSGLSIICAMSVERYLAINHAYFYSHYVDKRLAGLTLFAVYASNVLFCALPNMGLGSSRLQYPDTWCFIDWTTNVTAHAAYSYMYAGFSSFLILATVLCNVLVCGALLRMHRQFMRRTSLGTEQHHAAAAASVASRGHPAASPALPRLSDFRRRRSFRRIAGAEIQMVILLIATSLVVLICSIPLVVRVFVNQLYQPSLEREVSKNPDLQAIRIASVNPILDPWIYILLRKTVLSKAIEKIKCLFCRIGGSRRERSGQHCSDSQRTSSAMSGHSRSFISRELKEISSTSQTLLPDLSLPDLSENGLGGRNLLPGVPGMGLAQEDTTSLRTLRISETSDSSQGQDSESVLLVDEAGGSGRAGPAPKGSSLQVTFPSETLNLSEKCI
EP2 subtype of the human PGE2 receptor, sequence (P43116 whole entry): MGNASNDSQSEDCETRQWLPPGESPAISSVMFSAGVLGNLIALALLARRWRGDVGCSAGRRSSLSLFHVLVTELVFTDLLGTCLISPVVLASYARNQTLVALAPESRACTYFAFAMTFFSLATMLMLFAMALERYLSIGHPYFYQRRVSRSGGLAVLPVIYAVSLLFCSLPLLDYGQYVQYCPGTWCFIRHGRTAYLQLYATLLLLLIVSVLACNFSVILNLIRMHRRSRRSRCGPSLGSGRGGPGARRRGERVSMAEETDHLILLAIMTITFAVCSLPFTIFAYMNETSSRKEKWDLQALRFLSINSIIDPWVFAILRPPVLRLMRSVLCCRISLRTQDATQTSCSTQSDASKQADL

IC50 [1] [nM]	Selectivity hEP2/hDP [2]	Selectivity hEP2/hEP4 [3]	Compound
410	xx (xx: 10-100)	xx (xx: 10-100)	Cc1c(C(=O)NCC(C)OCC2CC2)ccc2nn(CC3CCN(C(=O)c4ccc(Cl)cc4)CC3)cc12 (racemic) [Example 102, (+/−)-2-{[1-(4-chlorobenzoyl)piperidin-4-yl]methyl}-N-[2-(cyclopropylmethoxy)propyl]-4-methyl-2H-indazol-5-carboxamide]
595	xx (xx: 10-100)	xx (xx: 10-100)	Cc1c(C(=O)NCC(C)OCC2CC2)ccc2nn(CC3CCN(C(=O)c4ccc(Oc5ccc(F)cc5)cc4)CC3)cc12 (racemic) [Example 103, (+/−)-N-[2-(cyclo-propylmethoxy)-propyl]-2-({1-[4-(4-fluorophenoxy)-benzoyl]piperidin-4-yl}-methyl)-4-methyl-2H-indazol-5-carboxamide]
513	xx (xx: 10-100)	xx (xx: 10-100)	Cc1c(C(=O)NCC(C)OCC2CC2)ccc2nn(CC3CCN(C(=O)c4ccc(C(F)(F)F)cc4)CC3)cc12 (racemic) [Example 104, (+/−)-N-[2-(cyclo-propylmethoxy)-propyl]-4-methyl-2-({1-[4-(trifluoro-mcthyl)benzoyl]-piperidin-4-yl}-methyl)-2H-indazol-5-carboxamide]
285	xx (xx: 10-100)	xx (xx: 10-100)	Cc1c(C(=O)NCC(C)OCC2CC2)ccc2nn(CC3CCN(C(=O)c4ccc(-c5ccc(F)cc5)cc4)CC3)cc12 (racemic) [Example 105, (+/−)-N-[2-(cyclo-propylmethoxy)-propyl]-2-({l-[(4′-fluorobiphenyl-4-yl)carbonyl]-piperidin-4-yl}-methyl)-4-methyl-2H-indazol-5-carboxamide]
150	xxx (xxx > 100)	xxx (xxx > 100)	Cc1c(C(=O)NCC(C)OCC2CC2)ccc2nn(CC3CCN(C(=O)c4ccc(C5CC5)cc4)CC3)cc12 (racemic) [Example 106, (+/−)-2-{[1-(4-cyclopropylbenzoyl)piperidin-4-yl]-methyl}-N-[2-(cyclopropyl-methoxy)propyl]-4-methyl-2H-indazol-5-carboxamide]
160	xxx (xxx > 100)	xxx (xxx > 100)	COC(C)CNC(=O)c1ccc2nn(CC3CN(C(=O)c4ccc(Cl)cc4)C3)cc2c1C (racemic) [Example 138, (+/−)-2-{[1-(4-chlorobenzoyl)azetidin-3-yl]methyl}-N-(2-methoxypropyl)-4-methyl-2H-indazol-5-carboxamide]
143	xxx (xxx > 100)	xxx (xxx > 100)	Cc1c(C(=O)NCC2COCCO2)ccc2nn(CC3CN(C(=O)c4ccc(Cl)cc4)C3)cc12 (racemic) [Example 141, (+/−)-2-{[1-(4-chlorobenzoyl)azetidin-3-yl]methyl}-N-(1,4-dioxan-2-ylmethyl)-4-methyl-2H-indazol-5-carboxamide]
50.8	xxx (xxx > 100)	xxx (xxx > 100)	Cc1c(C(=O)NCC2CCCCO2)ccc2nn(CC3CN(C(=O)c4ccc(Cl)cc4)C3)cc12 (racemic) [Example 144, (+/−)-2-{[1-(4-chlorobenzoyl)azetidin-3-yl]methyl}-4-methyl-N-(3,4,5,6-tetrahydro-2H-pyran-2-ylmethyl)-2H-indazol-5-carboxamide]
29	xxx (xxx > 100)		Cc1c(C(=O)NCCN2CCC(F)(F)C2)ccc2nn(CC3CCN(C(=O)c4ccc(Cl)cc4)CC3)cc12 [Example 69, 2-{[1-(4-chlorobenzoyl)piperidin-4-yl]methyl}-N-[2-(3,3-difluoropyrrolidin-1-yl)ethyl]-4-methyl-2H-indazol-5-carboxamide]
49	xxx (xxx > 100)		Cc1c(C(=O)NCCN2CCC(F)(F)C2)ccc2nn(CC3CCN(C(=O)c4ccc(SC(F)(F)F)cc4)CC3)cc12 [Example 70, N-[2-(3,3-difluoropyrrolidin-1-yl)ethyl]-4-methyl-2-[(1-{4-[(trifluoromethyl)sulphanyl]benzoyl}piperidin-4-yl)methyl]-2H-indazol-5-carboxamide]
8.17	xxx (xxx > 100)		COCCNC(=O)c1ccc2nn(CC3CN(C(=O)c4ccc(SC(F)(F)F)cc4)C3)cc2c1C [Example 118, N-(2-methoxyethyl)-4-methyl-2-[(1-{4-[(trifluoromethyl)sulphanyl]benzoyl}azetidin-3-yl)methyl]-2H-indazol-5-carboxamide]
13.2	xxx (xxx > 100)		COCCNC(=O)c1ccc2nn(CC3CN(C(=O)c4ccc(OC(F)(F)F)cc4)C3)cc2c1C [Example 119, N-(2-methoxyethyl)-4-methyl-2-({1-[4-(trifluoromethoxy)benzoyl]azetidin-3-yl}methyl)-2H-indazol-5-carboxamide]
15.5	xxx (xxx > 100)		COCCNC(=O)c1ccc2nn(CC3CN(C(=O)c4ccc(C(F)(F)F)cc4F)C3)cc2c1C [Example 120, 2-({1-[2-fluoro-4-(trifluoromethyl)benzoyl]azetidin-3-yl}methyl)-N-(2-methoxy-ethyl)-4-methyl-2H-indazol-5-carboxamide]
107		xxx (xxx > 100)	COCCNC(=O)c1ccc2nn(CC3CN(C(=O)c4ccc(Cl)c(C(F)(F)F)c4)C3)cc2c1OC [Example 256, 2-({1-[4-chloro-3-(trifluoromethyl)benzoyl]azetidin-3-yl}methyl)-4-methoxy-N-(2-methoxyethyl)-2H-indazol-5-carboxamide]
